# pIC50: −log10 of the molar value. “Also recorded” adds a separate entry of the source. Like-named read-outs stand apart in the source and are kept apart here.
# Key:
# [1] = cited from earlier work
# [2] = system: human smooth muscle cells; assay: Inhibition of human vascular cell proliferation with cladribine, smooth muscle cells, PDGF-stimulated cell count; format: cell-based; details: from IC50 values 23 and 40 nanomolar
# Description: After twenty-four hours, the growth medium was changed and fresh medium containing 10 ng/ml platelet-derived growth factor AB (PDGF AB; LIFE Technologies), as well as various concentrations of cladribine (0.001-10,000 nM) were added with triplicate wells. Medium was replaced with fresh cladribine-containing medium after three days. On day six, cells were detached by trypsinization to yield a cell suspension, lightly centrifuged to pellet and then counted manually using a Neubauer hemocytometer system. Cell viability was assessed by trypan blue exclusion.
# [3] = In vitro release kinetics of cladribine from PVDF/HFP coatings in twenty-five percent ethanol/water; format: in vitro ADME; details: room temperature
# Excerpt: FIG. […] The basecoat comprises a ratio of PVDF/ HFP (85/15) and cladribine. Cladribine comprises thirty percent of the basecoat. The topcoat also comprises an 85/15 ratio of PVDF and HFP, but no cladribine. Curve 5902 represents the release kinetics of cladribine wherein the basecoat weight is six hundred micrograms (one hundred eighty micrograms cladribine). Curve 5904 represents the release kinetics of cladribine wherein the basecoat weight is one thousand eight hundred micrograms (five hundred forty micrograms cladribine). Curve 5906 represents the release kinetics of cladribine wherein the basecoat weight is six hundred micrograms (one hunded eighty micrograms cladribine) and the topcoat weight is one hundred micrograms. Curve 5908 represents the release kinetics of cladribine wherein the basecoat weight is one thousand eight hundred micrograms (five hundred forty micrograms cladribine) and the topcoat is three hundred micrograms. Curve 5910 represents the release kinetic of cladribine wherein the basecoat weight is six hundred micrograms (one hundred eighty micrograms cladribine) and the topcoat is three hundred micrograms.
# FIG. 60 is a graphical representation of the in vitro release kinetics of cladribine from a sterile PVDF/HFP coating incorporated in a twenty-five percent ethanol/water release medium at room temperature. […]
# [4] = In vivo release kinetics of cladribine and rapamycin from coated Bx Velocity stents in Yorkshire pigs; parameters: species or system Yorkshire pig
# Excerpt: FIG. 61 is a graphical representation of the in vivo release kinetics of cladribine from a polymeric coating on Bx Velocity® stents, available from Cordis Corporation, implanted in a Yorkshire pig. The basecoat comprises an 85/15 ratio of PVDF and HFP and cladribine for a total combined weight of one thousand eight hundred micrograms (cladribine comprising thirty percent of the total weight). […]
# (§1) The basecoat is applied to Bx Velocity® stents and implanted into Yorkshire pigs.
# as §1
# [5] = system: non-synchronized cultured human coronary artery smooth muscle cells; assay: Anti-proliferative activity in non-synchronized cultured human coronary artery smooth muscle cells stimulated with two percent fetal bovine serum; format: cell-based
# Excerpt: The multiple curves represent various concentrations of mycophenolic acid ranging from zero to one thousand nanomolar concentrations.
# FIG. 58 illustrates, in graphical format, the anti-proliferative activity of cladribine in non-synchronized cultured human coronary artery smooth muscle cells stimulated with two percent fetal bovine serum.
# The multiple curves represent various concentrations of cladribine ranging from zero to nine hundred nanomolar concentrations.
# [6] = In vitro release kinetics of rapamycin from a combination of rapamycin and mycophenolic acid; format: in vitro ADME; details: FIG. 55
# Excerpt: The in vitro tests were run twice for each coating scenario.
# [7] = In vivo release kinetics of rapamycin and mycophenolic acid from polymer coatings, porcine pharmacokinetics studies
# Excerpt: The topcoat is two hundred micro grams.
# [8] = system: synchronized cultured human coronary artery smooth muscle cells; assay: Anti-proliferative activity in synchronized cultured human coronary artery smooth muscle cells stimulated with two percent fetal bovine serum; format: cell-based; details: topotecan zero to three hundred nanomolar, FIG. 64
# Excerpt: (§2) The multiple curves represent various concentrations of topotecan ranging from zero to three hundred nanomolar concentrations.
# cell viability = assay: Separate cell viability assay of topotecan; format: cell-based; details: concentrations up to one micromolar
# Excerpt: as §2
# [9] = system: human coronary artery smooth muscle cell; details: Brehm et al., 2000; cited from earlier work
# [10] = system: human coronary artery smooth muscle cell; assay: Inhibition of coronary artery smooth muscle cell proliferation by trichostatin A, in vitro cell culture; format: cell-based
# Excerpt: FIG. 51 is a graph of the inhibition of coronary artery smooth muscle cells by trichostatin A in a cell culture study.
# tumor cell lines = tumor cell lines (Woo et al., 2002); cited from earlier work
compound,measurement,setting,value
"CC[C@@]1(O)C(=O)OCc2c1cc1n(c2=O)Cc2cc3ccccc3nc2-1 [Camptothecin, camptothecin]",lipid solubility,[1],high lipid solubility
same,water solubility,[1],poor water solubility
"Nc1nc(Cl)nc2c1ncn2[C@H]1C[C@H](O)[C@@H](CO)O1 [Cladribine, 2-chlorodeoxyadenosine]",potency as inhibitor of smooth muscle cells relative to endothelial cells,[2],approximately twice as potent
same,"in vitro release rate of cladribine, effect of topcoat weight","[3]; non-sterile PVDF/HFP (85/15) coatings, FIG. 59",an increase in topcoat weight or thickness led to a decrease in the release rate of cladribine
same,"in vitro release rate of cladribine, effect of topcoat","[3]; sterile PVDF/HFP coating, FIG. 60",a three-times topcoat led to a drastic decrease of release rate
same,in vivo elution of cladribine compared with rapamycin,"[4]; EVA/BMA basecoat, 200 μg BMA topcoat, Yorkshire pigs, FIG. 63",elutes more rapidly than rapamycin
same,in vivo elution of cladribine over time,"[4]; PVDF/HFP 85/15 basecoat 1800 μg (thirty percent cladribine), 300 μg topcoat, Yorkshire pig, FIG. 61","after the first day, the elution of cladribine levels off significantly"
same,inhibition of human coronary artery smooth muscle cell proliferation,"[5]; cladribine alone, FIG. 58",completely inhibits
same,effect of added cladribine on the anti-proliferative rapamycin dose response curve,"[5]; cladribine zero to nine hundred nanomolar, FIG. 57",potentiate the anti-proliferative activity of rapamycin; also recorded: increases the percent inhibition of rapamycin alone
"CO[C@H]1C[C@@H]2CC[C@@H](C)[C@@](O)(O2)C(=O)C(=O)N2CCCC[C@H]2C(=O)O[C@H]([C@H](C)C[C@@H]2CC[C@@H](O)[C@H](OC)C2)CC(=O)[C@H](C)/C=C(\C)[C@@H](O)[C@@H](OC)C(=O)[C@H](C)C[C@H](C)/C=C/C=C/C=C/1C [Rapamycin, rapamycin]","in vitro release of rapamycin from EVA/BMA basecoat, effect of BMA topcoat",[6]; 600 μg basecoat with 180 μg rapamycin and 180 μg mycophenolic acid,BMA topcoat does slow the release of rapamycin from the basecoat in in vitro testing
same,in vitro release rates of rapamycin compared with in vivo,[6]; EVA/BMA basecoat,release rates are faster than in the in vivo testing
same,in vivo release rates of rapamycin from rapamycin/cladribine EVA/BMA basecoats,"[4]; three rapamycin/cladribine loadings, 200 μg BMA topcoat, Yorkshire pigs, FIG. 62",substantially similar to one another
same,"in vivo release of rapamycin from EVA/BMA basecoat, effect of BMA topcoat","[7]; 600 μg basecoat with 180 μg rapamycin and 180 μg mycophenolic acid, no, 100 or 200 μg BMA topcoat, FIG. 53",BMA topcoat does slow the release of rapamycin from the basecoat
same,in vivo release rate of rapamycin compared with mycophenolic acid,"[7]; PVDF basecoat 600 μg with PVDF topcoat 200 μg, FIG. 56",slower release rate than that of mycophenolic acid
"CC[C@@]1(O)C(=O)OCc2c1cc1n(c2=O)Cc2cc3c(CN(C)C)c(O)ccc3nc2-1 [Topotecan, topotecan]",effect of added topotecan on the anti-proliferative rapamycin dose response curve,[8],potentiate the anti-proliferative activity of rapamycin; also recorded: increases the percent inhibition of rapamycin alone
same,cytotoxicity in cell viability assay,cell viability,non-cytotoxic
same,inhibition of human coronary artery smooth muscle cell proliferation,[9],inhibit human coronary artery smooth muscle cell proliferation
COc1c(C)c2c(c(O)c1C/C=C(\C)CCC(=O)O)C(=O)OC2 [mycophenolic acid],effect of added mycophenolic acid on the anti-proliferative rapamycin dose response curve,"[5]; mycophenolic acid zero to one thousand nanomolar, FIG. 52",potentiates the anti-proliferative activity of rapamycin
same,"in vivo release of mycophenolic acid from EVA/BMA basecoat, effect of BMA topcoat","[7]; 600 μg basecoat with 180 μg rapamycin and 180 μg mycophenolic acid, no, 100 or 200 μg BMA topcoat, FIG. 54",BMA topcoat does slow the release of mycophenolic acid from the basecoat
same,in vivo elution of mycophenolic acid compared with rapamycin,"[7]; EVA/BMA basecoat, FIG. 53 and 54",elutes more completely over a shorter duration than the rapamycin
CC(/C=C/C(=O)NO)=C\[C@@H](C)C(=O)c1ccc(N(C)C)cc1 [trichostatin A],inhibition of human coronary artery smooth muscle cell proliferation,[10]; FIG. 51,completely inhibit
same,pIC50,[10]; read-out: anti-proliferative IC50,~8.22
same,anti-proliferative IC50,tumor cell lines,low nM range
